Results published in PMC4839570, “Novel Anthra[1,2-c][1,2,5]Thiadiazole-6,11-Diones as Promising Anticancer Lead Compounds: Biological Evaluation, Characterization & Molecular Targets Determination” (PLoS ONE, 2016).
Where two headings read alike, the source gives them in different places.

How the values were obtained:
SF-539 = assay: NCI-60 cytotoxicity screen; format: cell-based
ACHN = assay: JFCR-39 cytotoxicity screen; format: cell-based
LOX IMVI = assay: NCI-60 cytotoxicity screen; format: cell-based
SK-MEL-2 = assay: NCI-60 cytotoxicity screen; format: cell-based
CCRF-CEM = assay: NCI-60 cytotoxicity screen; format: cell-based
SF-295 = assay: NCI-60 cytotoxicity screen; format: cell-based
SK-OV-3 [1] = assay: NCI-60 cytotoxicity screen; format: cell-based
SK-OV-3 [2] = assay: JFCR-39 cytotoxicity screen; format: cell-based
SK-MEL-5 = assay: NCI-60 cytotoxicity screen; format: cell-based
SNB-78 = assay: JFCR-39 cytotoxicity screen; format: cell-based
HBC-4 = assay: JFCR-39 cytotoxicity screen; format: cell-based
HCT-116 = assay: JFCR-39 cytotoxicity screen; format: cell-based
OVCAR-4 = assay: NCI-60 cytotoxicity screen; format: cell-based
HCT-15 = assay: NCI-60 cytotoxicity screen; format: cell-based
[3] = system: normal cardiac myoblast H9c2 cells; conditions: rat
Protocol: Briefly, 96 well microtiter plates were inoculated with the specified human cancer cell lines in RPMI 1640 medium containing 5% fetal bovine serum and 2 mM L-glutamine at the specified plating densities. The microtiter plates were incubated at 37°C, 5% CO2, and 100% relative humidity for 24 h. The test compounds were solubilized in DMSO at 400-fold the desired final maximum test concentration, diluted with complete medium containing gentamicin and added to the wells of the microtiter plates to achieve the final desired compound concentration, then incubated for an additional 48 h at the same incubation conditions. The media were removed, the cells were fixed then stained with sulforhodamine B and the unbound dye was removed by washing with acetic acid. The bound dye was resolubilized with trizma base and the absorbance at 515 nm was measured. Cells were stained with the WST-1 cell proliferation reagent instead of sulforhodamine B in some experiments and absorbance were measured at 440 nm. The three dose response parameters GI50, TGI and LC50 were calculated for each experimental compound as follows [48]: For values where Ti ≥ Tz the formula is [ (Ti-Tz) / (C-Tz)] x 100 For values where Ti < Tz the formula is [ (Ti-Tz) / Tz] x 100 Where Ti is the absorbance of the solubilized Sulforhodamine B (SRB) (representing the number of cells) of the five different concentrations of the compound used in the test, Tz is the absorbance of the SRB at time zero, and C is the absorbance of the SRB of the control growth.

TK-10 = assay: NCI-60 cytotoxicity screen; format: cell-based
HT-29 = assay: JFCR-39 cytotoxicity screen; format: cell-based
KM12 = assay: NCI-60 cytotoxicity screen; format: cell-based
NCI-H322M = assay: NCI-60 cytotoxicity screen; format: cell-based
NCI/ADR-RES = assay: NCI-60 cytotoxicity screen; format: cell-based
BT-549 = assay: NCI-60 cytotoxicity screen; format: cell-based
MDA-MB-231 = assay: JFCR-39 cytotoxicity screen; format: cell-based
BSY-1 = assay: JFCR-39 cytotoxicity screen; format: cell-based
MDA-MB-231/ATCC = assay: NCI-60 cytotoxicity screen; format: cell-based
OVCAR-5 = assay: JFCR-39 cytotoxicity screen; format: cell-based
HOP-62 = assay: NCI-60 cytotoxicity screen; format: cell-based
[4] = Homo sapiens, Fig 7, read-out: mean log10 of the GI50 values (converted)
[5] = Homo sapiens, five-dose, read-out: GI50
[6] = Homo sapiens, five-dose, read-out: LC50 (the source's name)
[7] = Homo sapiens, read-out: LC50 (the source's name)

O=C1c2ccccc2C(=O)c2c1cc(Cl)c1nsnc21 [NSC757963]
GI50 (SF-539; [4]): 9.12 µM
GI50 (SF-539; [5]): 8.23 µM
CC50 (SF-539; [6]): 50.8 µM
TGI (SF-539; five-dose): 21.6 µM
TGI (ACHN): 3.4 µM
GI50 (ACHN; Homo sapiens): 1.8 µM
CC50 (ACHN; [7]): 6.5 µM
GI50 (LOX IMVI; Homo sapiens, LOXIMVI, Fig 7, read-out: mean log10 of the GI50 values (converted)): 1.74 µM
GI50 (LOX IMVI; [5]): 1.91 µM
CC50 (LOX IMVI; [6]): 19.7 µM
TGI (LOX IMVI; five-dose): 5.21 µM
GI50 (SK-MEL-2; [4]): 2.09 µM
GI50 (SK-MEL-2; [5]): 2.21 µM
CC50 (SK-MEL-2; [6]): 37.7 µM
TGI (SK-MEL-2; five-dose): 5.77 µM
GI50 (CCRF-CEM; [4]): 0.389 µM
GI50 (CCRF-CEM; [5]): 0.33 µM
CC50 (CCRF-CEM; [6]): > 100 µM
TGI (CCRF-CEM; five-dose): 2.37 µM
GI50 (SF-295; [4]): 17.4 µM
GI50 (SF-295; [5]): 16.6 µM
CC50 (SF-295; [6]): 62.9 µM
TGI (SF-295; five-dose): 32.3 µM
GI50 (SK-OV-3 [1]; [4]): 13.2 µM
GI50 (SK-OV-3 [1]; [5]): 17.8 µM
CC50 (SK-OV-3 [1]; [6]): 58 µM
TGI (SK-OV-3 [1]; five-dose): 32.1 µM
TGI (SK-OV-3 [2]): 14.0 µM
GI50 (SK-OV-3 [2]; Homo sapiens): 3.2 µM
CC50 (SK-OV-3 [2]; [7]): 38 µM
GI50 (SK-MEL-5; [4]): 6.92 µM
GI50 (SK-MEL-5; [5]): 8.48 µM
CC50 (SK-MEL-5; [6]): 46.2 µM
TGI (SK-MEL-5; five-dose): 21.0 µM
TGI (SNB-78): 4.1 µM
GI50 (SNB-78; Homo sapiens): 2.2 µM
CC50 (SNB-78; [7]): 7.9 µM
TGI (HBC-4): 3.1 µM
GI50 (HBC-4; Homo sapiens, HBC4): 1.7 µM
CC50 (HBC-4; Homo sapiens, HBC4, read-out: LC50 (the source's name)): 5.6 µM
TGI (HCT-116): 4.0 µM
GI50 (HCT-116; Homo sapiens): 1.9 µM
CC50 (HCT-116; [7]): 8.3 µM
GI50 (OVCAR-4; [4]): 1.66 µM
GI50 (OVCAR-4; [5]): 1.46 µM
CC50 (OVCAR-4; [6]): 5.5 µM
TGI (OVCAR-4; five-dose): 2.83 µM
GI50 (HCT-15; [4]): 6.61 µM
GI50 (HCT-15; [5]): 10.2 µM
CC50 (HCT-15; [6]): 55.9 µM
TGI (HCT-15; five-dose): 23.8 µM
cytotoxicity towards normal cardiac myoblast H9c2 cells [3]: significantly less cytotoxic effects on H9c2 cells at higher doses than doxorubicin
GI50 (TK-10; [4]): 22.9 µM
GI50 (TK-10; [5]): 24.1 µM
CC50 (TK-10; [6]): 64.1 µM
TGI (TK-10; five-dose): 39.3 µM
TGI (HT-29): 45.0 µM
GI50 (HT-29; Homo sapiens): 21 µM
CC50 (HT-29; [7]): 98 µM
GI50 (KM12; [4]): 10.7 µM
GI50 (KM12; [5]): 12.9 µM
CC50 (KM12; [6]): 52.1 µM
TGI (KM12; five-dose): 25.9 µM
GI50 (NCI-H322M; [4]): 30.9 µM
GI50 (NCI-H322M; [5]): 18.6 µM
CC50 (NCI-H322M; [6]): 71 µM
TGI (NCI-H322M; five-dose): 36.3 µM
GI50 (NCI/ADR-RES; [4]): 3.09 µM
GI50 (NCI/ADR-RES; [5]): 3.12 µM
CC50 (NCI/ADR-RES; [6]): > 100 µM
TGI (NCI/ADR-RES; five-dose): 18.8 µM
GI50 (BT-549; [4]): 15.8 µM
GI50 (BT-549; [5]): 18.1 µM
CC50 (BT-549; [6]): 58.9 µM
TGI (BT-549; five-dose): 32.7 µM
TGI (MDA-MB-231): 2.9 µM
GI50 (MDA-MB-231; Homo sapiens): 1.3 µM
CC50 (MDA-MB-231; [7]): 6.4 µM
TGI (BSY-1): 3.2 µM
GI50 (BSY-1; Homo sapiens): 1.7 µM
CC50 (BSY-1; [7]): 6 µM
GI50 (MDA-MB-231/ATCC; [4]): 1.17 µM
GI50 (MDA-MB-231/ATCC; [5]): 1.32 µM
CC50 (MDA-MB-231/ATCC; [6]): 8.63 µM
TGI (MDA-MB-231/ATCC; five-dose): 3.37 µM
TGI (OVCAR-5): 3.0 µM
GI50 (OVCAR-5; Homo sapiens): 1.6 µM
CC50 (OVCAR-5; [7]): 5.5 µM
GI50 (HOP-62; [4]): 3.89 µM
GI50 (HOP-62; [5]): 4.95 µM
CC50 (HOP-62; [6]): 43.3 µM
TGI (HOP-62; five-dose): 17.3 µM
